Assay results as given in patent US6303630A, “Diarylsulfone non-nucleoside reverse transcriptase inhibitors of human immunodeficiency virus” (University of the Sciences in Philadelphia, priority 2000, dated 2001).
Where two headings read alike, the source gives them in different places.

How the values were obtained:
[1] = test system: T4 lymphocytes (CEM cell line); test: Cell growth / toxicity control in uninfected T4 lymphocytes (CEM), XTT-formazan; type: cell-based; conditions: for IC50: uninfected CEM cells, 6 days, XTT, approximate values, read-out: IC50 (50% inhibitory concentration for cell growth); for activity at 200 µM / activity at 20 µM / activity at 2 µM / activity at 0.2 µM / activity at 63.2 µM / activity at 6.33 µM / activity at 0.634 µM / activity at 0.0635 µM: read-out: Percent of Control, Uninfected; for activity at 2 µM: dose 2.00 × 10^-6 Molar; for activity at 0.2 µM: dose 2.00 × 10^-7 Molar; for activity at 63.2 µM: dose 6.32 × 10^-5 Molar; for activity at 0.634 µM: dose 6.34 × 10^-7 Molar; for activity at 0.0635 µM: dose 6.35 × 10^-8 Molar
Source text: (§1) The NCI procedure is fully described, for example, in a bulletin provided by the National Institutes of Health, National Cancer Institute, Bethesda, Md. 20892, all of which is incorporated herein by reference. As related in the NCI bulletin, the procedure is based on O. W. Weislow et al., "New soluble-formazan assay for HIV-1 cytopathic effects: application to high flux screening of synthetic and natural products for AIDS-antiviral activity", J. Natl. Cancer Inst. 81:577-586 (1989), and is used to test for compounds active against human immunodeficiency virus (HIV), and is designed to detect compounds active at any stage of the virus reproductive cycle. As further related in the NCI bulletin, the assay includes killing of T4 lymphocytes by HIV. Amounts of HIV are added to cells, with a minimum of two cycles of virus reproduction found to be necessary to obtain the required cell killing. Compounds that interact with virions, cells, or virus gene-products to interfere with viral activities will protect cells from cytolysis. All were compared with a positive (e.g., AZT-treated) control evaluation at the same time under identical conditions. The procedure is set forth as follows:
(§2) A candidate compound is first dissolved in a suitable solvent, preferably dimethyl sulfoxide, then diluted 1:100 in cell culture medium before preparing serial half-log10 dilutions. T4 lymphocytes (CEM cell line) are then added and after a brief interval HIV-1 is added, resulting in a 1:200 final dilution of the compound. Uninfected cells with the compound serve as a toxicity control, and infected and uninfected without the compound serve as basic controls. Cultures are then incubated at 37° in a 5% carbon dioxide atmosphere for 6 days. The tetrazolium salt, XTT, is added to all wells, and cultures are incubated to allow formazan color development by viable cells. Individual wells are analyzed spectrophotometrically to quantitate formazan product, and in addition are viewed microscopically for detection of viable cells and confirmation of protective activity. Drug-treated virus-infected cells are compared with drug-treated noninfected cells and with other appropriate controls (untreated infected and untreated noninfected cells, drug-containing wells without cells, etc.) on the same plate. Data are reviewed in comparison with other tests performed at the same time and a determination as to activity is made.

HIV-1 = test: NCI in vitro anti-HIV drug screen: XTT-formazan assay, protection of T4 lymphocytes (CEM) from HIV-1 cytopathic effects; type: cell-based, human immunodeficiency virus (HIV-1); conditions: for EC50 / inhibition at 200 µM / inhibition at 20 µM / inhibition at 2 µM / inhibition at 0.2 µM / inhibition at 63.2 µM / inhibition at 6.33 µM / inhibition at 0.0635 µM / inhibition at 0.634 µM: Human immunodeficiency virus 1, CCRF-CEM; for EC50: 144 h, HIV-1 infected CEM cells, 6 days, XTT, approximate values, read-out: EC50 (50% effective concentration against HIV cytopathic effects); for inhibition at 2 µM / activity at 2 µM: dose 2.00 × 10^-6 Molar; for inhibition at 6.33 µM / activity at 6.33 µM: dose 6.33 × 10^-6 Molar; for activity at 200 µM / activity at 20 µM / activity at 2 µM / activity at 0.2 µM / activity at 63.2 µM / activity at 6.33 µM / activity at 0.634 µM / activity at 0.0635 µM: Human immunodeficiency virus 1, Lymphocyte, read-out: Percent of Control, Infected; for TI50 (IC/EC), Therapeutic Index: IC50/EC50
Method: Compounds of the present invention were evaluated for anti-HIV efficacy by the National Cancer Institute's (NCI) In Vitro Anti AIDS Drug Discovery Program.
as §1, §2

[2] = Homo sapiens, CCRF-CEM, dose 2.00 × 10^-4 Molar
[3] = Homo sapiens, CCRF-CEM, dose 2.00 × 10^-5 Molar
[4] = Homo sapiens, CCRF-CEM, dose 6.33 × 10^-6 Molar
[5] = dose 2.00 × 10^-4 Molar, read-out: Percent of Protection
[6] = dose 2.00 × 10^-5 Molar, read-out: Percent of Protection
[7] = read-out: Percent of Protection
[8] = dose 2.00 × 10^-7 Molar, read-out: Percent of Protection
[9] = dose 6.32 × 10^-5 Molar, read-out: Percent of Protection
[10] = dose 6.35 × 10^-8 Molar, read-out: Percent of Protection
[11] = dose 2.00 × 10^-4 Molar, listed as Example 21
[12] = dose 2.00 × 10^-5 Molar, listed as Example 21
[13] = dose 6.34 × 10^-7 Molar, read-out: Percent of Protection

## CNc1ccc(Cl)cc1S(=O)(=O)c1ccccc1 [Compound 57, 2-phenylsulfonyl-4-chloro-N-methylaniline]
[1]; Homo sapiens, CCRF-CEM, 144 h
  IC50: > 200 µM
[1]; [2]
  activity at 200 µM: 75.9%
[1]; [3]
  activity at 20 µM: 87.2%
[1]; Homo sapiens, CCRF-CEM
  activity at 2 µM: 91.5%
  activity at 0.2 µM: 92%
  activity at 63.2 µM: 97.2%
  activity at 0.634 µM: 86.4%
  activity at 0.0635 µM: 91.9%
[1]; [4]
  activity at 6.33 µM: 89.6%
HIV-1
  EC50: 9840 nM
  activity at 2 µM: 9.73%
  activity at 6.33 µM: 28.3%
  TI50 (IC/EC), Therapeutic Index: > 2.03 × 10^-1
HIV-1; [5]
  inhibition at 200 µM: 22%
HIV-1; [6]
  inhibition at 20 µM: 94%
HIV-1; [7]
  inhibition at 2 µM: 2.94%
  inhibition at 6.33 µM: 22.9%
HIV-1; [8]
  inhibition at 0.2 µM: 0.57%
HIV-1; [9]
  inhibition at 63.2 µM: 91.9%
HIV-1; [10]
  inhibition at 0.0635 µM: -1.32%
HIV-1; read-out: Percent of Protection, dose 6.34 × 10^-7 Molar
  inhibition at 0.634 µM: -1.18%
HIV-1; dose 2.00 × 10^-4 Molar
  activity at 200 µM: 27.5%
HIV-1; dose 2.00 × 10^-5 Molar
  activity at 20 µM: 94.4%
HIV-1; dose 2.00 × 10^-7 Molar
  activity at 0.2 µM: 7.53%
HIV-1; dose 6.32 × 10^-5 Molar
  activity at 63.2 µM: 92.5%
HIV-1; dose 6.34 × 10^-7 Molar
  activity at 0.634 µM: 5.9%
HIV-1; dose 6.35 × 10^-8 Molar
  activity at 0.0635 µM: 5.77%

## CNc1ccccc1S(=O)(=O)c1ccccc1[N+](=O)[O-] [Compound 66, 2-(2-nitrophenylsulfonyl)-N-methylaniline]
[1]; Homo sapiens, CCRF-CEM
  activity at 2 µM: 101%
  activity at 0.2 µM: 105%
  activity at 63.2 µM: 23.9%
  activity at 0.634 µM: 99.4%
  activity at 0.0635 µM: 98.5%
[1]; [11]
  Percent of Control, Uninfected: -4.40%
[1]; [12]
  Percent of Control, Uninfected: 104.09%
[1]; dose 6.33 × 10^-6 Molar, listed as Example 21
  Percent of Control, Uninfected: 109.40%
[1]; listed as Example 21
  IC50: 43.5 µM
HIV-1
  EC50: 1020 nM
  activity at 2 µM: 93.8%
  activity at 6.33 µM: 106%
HIV-1; [7]
  inhibition at 2 µM: 93.1%
  inhibition at 6.33 µM: 107%
HIV-1; listed as Example 21
  TI50 (IC/EC), Therapeutic Index: 4.24 × 10^+1
HIV-1; dose 2.00 × 10^-4 Molar, 200 µM, listed as Example 21, 200 µM
  Percent of Protection: -15.92%
HIV-1; [11]
  Percent of Control, Infected: -4.33%
HIV-1; dose 2.00 × 10^-5 Molar, 20 µM, listed as Example 21, 20 µM
  Percent of Protection: 98.73%
HIV-1; [12]
  Percent of Control, Infected: 98.86%
HIV-1; dose 2.00 × 10^-7 Molar, 0.2 µM, listed as Example 21, 0.2 µM
  Percent of Protection: 4.77%
HIV-1; dose 2.00 × 10^-7 Molar, listed as Example 21
  Percent of Control, Infected: 14.29%
HIV-1; dose 6.32 × 10^-5 Molar, 63.2 µM, listed as Example 21, 63.2 µM
  Percent of Protection: 24.17%
HIV-1; dose 6.32 × 10^-5 Molar, listed as Example 21
  Percent of Control, Infected: 31.75%
HIV-1; dose 6.34 × 10^-7 Molar, 0.634 µM, listed as Example 21, 0.634 µM
  Percent of Protection: 19.34%
HIV-1; dose 6.34 × 10^-7 Molar, listed as Example 21
  Percent of Control, Infected: 27.41%
HIV-1; dose 6.35 × 10^-8 Molar, 0.0635 µM, listed as Example 21, 0.0635 µM
  Percent of Protection: 2.40%
HIV-1; dose 6.35 × 10^-8 Molar, listed as Example 21
  Percent of Control, Infected: 12.16%

## CNc1ccc(Cl)cc1S(=O)(=O)c1ccccc1[N+](=O)[O-] [Compound 72, 2-(2-nitrophenylsulfonyl)4-chloro-N-methylaniline]
[1]; Homo sapiens, CCRF-CEM, 144 h
  IC50: > 200 µM
[1]; [2]
  activity at 200 µM: 84%
[1]; [3]
  activity at 20 µM: 93.6%
[1]; Homo sapiens, CCRF-CEM
  activity at 2 µM: 95.8%
  activity at 0.2 µM: 102%
  activity at 63.2 µM: 97%
  activity at 0.634 µM: 101%
  activity at 0.0635 µM: 99%
[1]; [4]
  activity at 6.33 µM: 101%
HIV-1
  EC50: 75 nM
  activity at 2 µM: 93.6%
  activity at 6.33 µM: 93.4%
  TI50 (IC/EC), Therapeutic Index: > 2.67 × 10^+3
HIV-1; [5]
  inhibition at 200 µM: 74%
HIV-1; [6]
  inhibition at 20 µM: 84%
HIV-1; [7]
  inhibition at 2 µM: 93.4%
  inhibition at 6.33 µM: 93.3%
HIV-1; [8]
  inhibition at 0.2 µM: 76%
HIV-1; [9]
  inhibition at 63.2 µM: 85.5%
HIV-1; [13]
  inhibition at 0.634 µM: 102%
HIV-1; [10]
  inhibition at 0.0635 µM: 46.1%
HIV-1; dose 2.00 × 10^-4 Molar
  activity at 200 µM: 74.5%
HIV-1; dose 2.00 × 10^-5 Molar
  activity at 20 µM: 84.3%
HIV-1; dose 2.00 × 10^-7 Molar
  activity at 0.2 µM: 76.5%
HIV-1; dose 6.32 × 10^-5 Molar
  activity at 63.2 µM: 85.8%
HIV-1; dose 6.34 × 10^-7 Molar
  activity at 0.634 µM: 102%
HIV-1; dose 6.35 × 10^-8 Molar
  activity at 0.0635 µM: 47.1%

## CNc1ccc(S(=O)(=O)c2ccccc2[N+](=O)[O-])cc1Cl [Compound 77, 4-(2-nitrophenylsulfonyl)-2-chloro-N-methylaniline]
[1]; Homo sapiens, CCRF-CEM, 144 h
  IC50: > 200 µM
[1]; [2]
  activity at 200 µM: 111%
[1]; [3]
  activity at 20 µM: 89.7%
[1]; Homo sapiens, CCRF-CEM
  activity at 2 µM: 110%
  activity at 0.2 µM: 106%
  activity at 63.2 µM: 95.2%
  activity at 0.634 µM: 107%
  activity at 0.0635 µM: 111%
[1]; [4]
  activity at 6.33 µM: 100%
HIV-1
  EC50: 119 nM
  activity at 2 µM: 100%
  activity at 6.33 µM: 99.5%
  TI50 (IC/EC), Therapeutic Index: > 1.69 × 10^+3
HIV-1; [5]
  inhibition at 200 µM: 100%
HIV-1; [6]
  inhibition at 20 µM: 96.7%
HIV-1; [7]
  inhibition at 2 µM: 100%
  inhibition at 6.33 µM: 99.5%
HIV-1; [8]
  inhibition at 0.2 µM: 82%
HIV-1; [9]
  inhibition at 63.2 µM: 106%
HIV-1; [13]
  inhibition at 0.634 µM: 89.8%
HIV-1; [10]
  inhibition at 0.0635 µM: 12.3%
HIV-1; dose 2.00 × 10^-4 Molar
  activity at 200 µM: 100%
HIV-1; dose 2.00 × 10^-5 Molar
  activity at 20 µM: 96.8%
HIV-1; dose 2.00 × 10^-7 Molar
  activity at 0.2 µM: 82.9%
HIV-1; dose 6.32 × 10^-5 Molar
  activity at 63.2 µM: 106%
HIV-1; dose 6.34 × 10^-7 Molar
  activity at 0.634 µM: 90.3%
HIV-1; dose 6.35 × 10^-8 Molar
  activity at 0.0635 µM: 16.7%
